From US20020065219A1, “Water soluble thiazolyl peptide derivatives” (priority 2000, published 2002)
In brackets after ≈: the same amount, converted by molar mass. Where two headings read alike, the source gives them in different places. Blank lines part the entries; values can stand above or below the molecule they belong to.

Tests used:
Assay in all cases: MIC, broth micro dilution assay (NCCLS)
Type in all cases: cell-based
[1] = test system: Streptococcus pneumoniae A28272
[2] = test system: Staphylococcus aureus A15090
[3] = test system: Enterococcus faecalis A20688
[4] = 50% Mueller-Hinton medium and 50% Todd Hewitt medium, 35° C., 18 hours
[5] = Mueller-Hinton medium, 35° C., 18 hours

SMILES: CO/C(C)=C1/NC(=O)C(C(C)O)NC(=O)c2csc(n2)-c2cc(O)c(-c3nc(C(=O)NC(CN4CCN(CCN5CCOCC5)CC4)C(N)=O)cs3)nc2-c2csc(n2)C2COC(=O)c3c4c5c(cccc5n3O)COC(=O)C(O[C@H]3C[C@](C)(O)[C@H](N(C)C)[C@H](C)O3)C(OC4)C(NC(=O)c3csc1n3)c1nc(cs1)C(=O)N2 (stereo partly drawn) [Example 53]
MIC (μg/mL) against Streptococcus pneumoniae A28272 [1]: 0.5 µg/mL (≈ 0.305 µM)
MIC (μg/mL) against Staphylococcus aureus A15090 [2]: 0.5 µg/mL (≈ 0.305 µM)
MIC (μg/mL) against Enterococcus faecalis A20688 [3]: 1.0 µg/mL (≈ 0.611 µM)

SMILES: CCN(CC)CCS(=O)(=O)CC(NC(=O)c1csc(-c2nc3c(cc2O)-c2nc(cs2)C(=O)NC(C(C)O)C(=O)N/C(=C(\C)OC)c2nc(cs2)C(=O)NC2c4nc(cs4)C(=O)NC(COC(=O)c4c5c6c(cccc6n4O)COC(=O)C(O[C@H]4C[C@](C)(O)C(N(C)C)[C@H](C)O4)C2OC5)c2nc-3cs2)n1)C(N)=O (stereo partly drawn) [Example 103]
MIC ([1]; Streptococcus pneumoniae, A28272, 18 h, read-out: MIC (μg/mL) against Streptococcus pneumoniae A28272): 0.007 µg/mL (≈ 0.00437 µM)
MIC ([2]; Staphylococcus aureus, A15090, 18 h, read-out: MIC (μg/mL) against Staphylococcus aureus A15090): 0.06 µg/mL (≈ 0.0374 µM)
MIC ([3]; Enterococcus faecalis, A20688, 18 h, read-out: MIC (μg/mL) against Enterococcus faecalis A20688): 0.03 µg/mL (≈ 0.0187 µM)

SMILES: CO/C(C)=C1/NC(=O)C(C(C)O)NC(=O)c2csc(n2)-c2cc(O)c(-c3nc(C(=O)NC(CN4CCN(CCN(C)C)CC4)C(N)=O)cs3)nc2-c2csc(n2)C2COC(=O)c3c4c5c(cccc5n3O)COC(=O)C(O[C@H]3C[C@](C)(O)[C@H](N(C)C)[C@H](C)O3)C(OC4)C(NC(=O)c3csc1n3)c1nc(cs1)C(=O)N2 (stereo partly drawn) [Example 54]
MIC (μg/mL) against Streptococcus pneumoniae A28272 [1]: 0.25 µg/mL (≈ 0.157 µM)
MIC (μg/mL) against Staphylococcus aureus A15090 [2]: 0.5 µg/mL (≈ 0.314 µM)
MIC (μg/mL) against Enterococcus faecalis A20688 [3]: 0.125 µg/mL (≈ 0.0784 µM)

SMILES: COC(C)=C1NC(=O)C(C(C)O)NC(=O)c2csc(n2)-c2cc(O)c(-c3nc(C(=O)NC(CSCC(=O)O)C(N)=O)cs3)nc2-c2csc(n2)C2COC(=O)c3c4c5c(cccc5n3O)COC(=O)C(O)C(OC4)C(NC(=O)c3csc1n3)c1nc(cs1)C(=O)N2 (stereo not drawn) [Example 95]
MIC (μg/mL) against Streptococcus pneumoniae A28272 [1, 4]: 0.03 µg/mL (≈ 0.0221 µM)
MIC (μg/mL) against Staphylococcus aureus A15090 [2, 5]: 0.5 µg/mL (≈ 0.368 µM)
MIC (μg/mL) against Enterococcus faecalis A20688 [3, 5]: 4.0 µg/mL (≈ 2.94 µM)

SMILES: CO/C(C)=C1/NC(=O)C(C(C)O)NC(=O)c2csc(n2)-c2cc(O)c(-c3nc(C(=O)NC(CN(C)CCc4c[nH]cn4)C(N)=O)cs3)nc2-c2csc(n2)C2COC(=O)c3c4c5c(cccc5n3O)COC(=O)C(O[C@H]3C[C@](C)(O)[C@H](N(C)C)[C@H](C)O3)C(OC4)C(NC(=O)c3csc1n3)c1nc(cs1)C(=O)N2 (stereo partly drawn) [Example 56]
MIC (μg/mL) against Streptococcus pneumoniae A28272 [1]: 0.125 µg/mL (≈ 0.08 µM)
MIC (μg/mL) against Staphylococcus aureus A15090 [2]: 0.25 µg/mL (≈ 0.16 µM)
MIC (μg/mL) against Enterococcus faecalis A20688 [3]: 0.5 µg/mL (≈ 0.32 µM)

MIC (μg/mL) against Streptococcus pneumoniae A28272 [1, 4]: 0.007 µg/mL (≈ 0.00435 µM)
MIC (μg/mL) against Staphylococcus aureus A15090 [2, 5]: 0.06 µg/mL (≈ 0.0373 µM)
MIC (μg/mL) against Enterococcus faecalis A20688 [3, 5]: 0.25 µg/mL (≈ 0.155 µM)
SMILES: CCOC(=O)CN1CCN(CC(NC(=O)c2csc(-c3nc4c(cc3O)-c3nc(cs3)C(=O)NC(C(C)O)C(=O)N/C(=C(\C)OC)c3nc(cs3)C(=O)NC3c5nc(cs5)C(=O)NC(COC(=O)c5c6c7c(cccc7n5O)COC(=O)C(O[C@H]5C[C@](C)(O)[C@H](N(C)C)[C@H](C)O5)C3OC6)c3nc-4cs3)n2)C(N)=O)CC1 (stereo partly drawn) [Example 36]

SMILES: CO/C(C)=C1/NC(=O)C(C(C)O)NC(=O)c2csc(n2)-c2cc(O)c(-c3nc(C(=O)NC(CN(C)CCCn4ccnc4)C(N)=O)cs3)nc2-c2csc(n2)C2COC(=O)c3c4c5c(cccc5n3O)COC(=O)C(O[C@H]3C[C@](C)(O)[C@H](N(C)C)[C@H](C)O3)C(OC4)C(NC(=O)c3csc1n3)c1nc(cs1)C(=O)N2 (stereo partly drawn) [Example 41]
MIC (μg/mL) against Streptococcus pneumoniae A28272 [1, 4]: 0.125 µg/mL (≈ 0.0793 µM)
MIC (μg/mL) against Staphylococcus aureus A15090 [2, 5]: 0.5 µg/mL (≈ 0.317 µM)
MIC (μg/mL) against Enterococcus faecalis A20688 [3, 5]: 0.5 µg/mL (≈ 0.317 µM)

SMILES: CO/C(C)=C1/NC(=O)C(C(C)O)NC(=O)c2csc(n2)-c2cc(O)c(-c3nc(C(=O)NC(CSCCS(=O)(=O)O)C(N)=O)cs3)nc2-c2csc(n2)C2COC(=O)c3c4c5c(cccc5n3O)COC(=O)C(O[C@H]3C[C@](C)(O)[C@H](N(C)C)[C@H](C)O3)C(OC4)C(NC(=O)c3csc1n3)c1nc(cs1)C(=O)N2 (stereo partly drawn) [Example 46]
MIC (μg/mL) against Streptococcus pneumoniae A28272 [1, 4]: 0.06 µg/mL (≈ 0.038 µM)
MIC (μg/mL) against Staphylococcus aureus A15090 [2, 5]: 4.0 µg/mL (≈ 2.53 µM)
MIC (μg/mL) against Enterococcus faecalis A20688 [3, 5]: 128 µg/mL (≈ 81 µM)

SMILES: COC(C)=C1NC(=O)C(C(C)O)NC(=O)c2csc(n2)-c2cc(O)c(-c3nc(C(=O)NC(CN4CCC4CO)C(N)=O)cs3)nc2-c2csc(n2)C2COC(=O)c3c4c5c(cccc5n3O)COC(=O)C(OC3CC(C)(O)C(N(C)C)C(C)O3)C(OC4)C(NC(=O)c3csc1n3)c1nc(cs1)C(=O)N2 (stereo not drawn) [Example 84]
MIC (μg/mL) against Streptococcus pneumoniae A28272 [1]: 0.125 µg/mL (≈ 0.082 µM)
MIC (μg/mL) against Staphylococcus aureus A15090 [2]: 0.5 µg/mL (≈ 0.328 µM)
MIC (μg/mL) against Enterococcus faecalis A20688 [3]: 0.25 µg/mL (≈ 0.164 µM)

SMILES: CO/C(C)=C1/NC(=O)C(C(C)O)NC(=O)c2csc(n2)-c2cc(O)c(-c3nc(C(=O)NC(CNCCN(C)C)C(N)=O)cs3)nc2-c2csc(n2)C2COC(=O)c3c4c5c(cccc5n3O)COC(=O)C(O[C@H]3C[C@](C)(O)[C@H](N(C)C)[C@H](C)O3)C(OC4)C(NC(=O)c3csc1n3)c1nc(cs1)C(=O)N2 (stereo partly drawn) [Example 17]
MIC (μg/mL) against Streptococcus pneumoniae A28272 [1, 4]: 0.03 µg/mL (≈ 0.0197 µM)
MIC (μg/mL) against Staphylococcus aureus A15090 [2, 5]: 2.0 µg/mL (≈ 1.31 µM)
MIC (μg/mL) against Enterococcus faecalis A20688 [3, 5]: 4.0 µg/mL (≈ 2.62 µM)

MIC (μg/mL) against Streptococcus pneumoniae A28272 [1, 4]: 0.5 µg/mL (≈ 0.311 µM)
MIC (μg/mL) against Staphylococcus aureus A15090 [2, 5]: 2.0 µg/mL (≈ 1.24 µM)
MIC (μg/mL) against Enterococcus faecalis A20688 [3, 5]: 8.0 µg/mL (≈ 4.98 µM)
SMILES: CO/C(C)=C1/NC(=O)C(C(C)O)NC(=O)c2csc(n2)-c2cc(O)c(-c3nc(C(=O)NC(CNCCn4cc([N+](=O)[O-])nc4C)C(N)=O)cs3)nc2-c2csc(n2)C2COC(=O)c3c4c5c(cccc5n3O)COC(=O)C(O[C@H]3C[C@](C)(O)[C@H](N(C)C)[C@H](C)O3)C(OC4)C(NC(=O)c3csc1n3)c1nc(cs1)C(=O)N2 (stereo partly drawn) [Example 68]

SMILES: CO/C(C)=C1/NC(=O)C(C(C)O)NC(=O)c2csc(n2)-c2cc(O)c(-c3nc(C(=O)NC(CN4CCN(c5ccccn5)CC4)C(N)=O)cs3)nc2-c2csc(n2)C2COC(=O)c3c4c5c(cccc5n3O)COC(=O)C(O[C@H]3C[C@](C)(O)[C@H](N(C)C)[C@H](C)O3)C(OC4)C(NC(=O)c3csc1n3)c1nc(cs1)C(=O)N2 (stereo partly drawn) [Example 48]
MIC (μg/mL) against Streptococcus pneumoniae A28272 [1]: 0.03 µg/mL (≈ 0.0187 µM)
MIC (μg/mL) against Staphylococcus aureus A15090 [2]: 0.125 µg/mL (≈ 0.0781 µM)
MIC (μg/mL) against Enterococcus faecalis A20688 [3]: 0.25 µg/mL (≈ 0.156 µM)

SMILES: COC(C)=C1NC(=O)C(C(C)O)NC(=O)c2csc(n2)-c2cc(O)c(-c3nc(C(=O)NC(CN4CCCC4C(O)c4nccn4C)C(N)=O)cs3)nc2-c2csc(n2)C2COC(=O)c3c4c5c(cccc5n3O)COC(=O)C(OC3CC(C)(O)C(N(C)C)C(C)O3)C(OC4)C(NC(=O)c3csc1n3)c1nc(cs1)C(=O)N2 (stereo not drawn) [Example 91]
MIC (μg/mL) against Streptococcus pneumoniae A28272 [1, 4]: 0.015 µg/mL (≈ 0.00927 µM)
MIC (μg/mL) against Staphylococcus aureus A15090 [2, 5]: 0.03 µg/mL (≈ 0.0185 µM)
MIC (μg/mL) against Enterococcus faecalis A20688 [3, 5]: 0.06 µg/mL (≈ 0.0371 µM)

SMILES: CNC(=O)N(C)CC(NC(=O)c1csc(-c2nc3c(cc2O)-c2nc(cs2)C(=O)NC(C(C)O)C(=O)N/C(=C(\C)OC)c2nc(cs2)C(=O)NC2c4nc(cs4)C(=O)NC(COC(=O)c4c5c6c(cccc6n4O)COC(=O)C(OC4CC(C)(O)C(N(C)C)C(C)O4)C2OC5)c2nc-3cs2)n1)C(N)=O (stereo not drawn) [Example 109]
MIC (μg/mL) against Streptococcus pneumoniae A28272 [1, 4]: 0.06 µg/mL (≈ 0.0393 µM)
MIC (μg/mL) against Staphylococcus aureus A15090 [2, 5]: 0.06 µg/mL (≈ 0.0393 µM)
MIC (μg/mL) against Enterococcus faecalis A20688 [3, 5]: 0.5 µg/mL (≈ 0.328 µM)

SMILES: CO/C(C)=C1/NC(=O)C(C(C)O)NC(=O)c2csc(n2)-c2cc(O)c(-c3nc(C(=O)NC(CSCCc4cnccn4)C(N)=O)cs3)nc2-c2csc(n2)C2COC(=O)c3c4c5c(cccc5n3O)COC(=O)C(O[C@H]3C[C@](C)(O)[C@H](N(C)C)[C@H](C)O3)C(OC4)C(NC(=O)c3csc1n3)c1nc(cs1)C(=O)N2 (stereo partly drawn) [Example 62]
MIC (μg/mL) against Streptococcus pneumoniae A28272 [1, 4]: 0.015 µg/mL (≈ 0.00951 µM)
MIC (μg/mL) against Staphylococcus aureus A15090 [2, 5]: 0.125 µg/mL (≈ 0.0792 µM)
MIC (μg/mL) against Enterococcus faecalis A20688 [3, 5]: 0.25 µg/mL (≈ 0.158 µM)
